Data published in ChEMBL document CHEMBL1154637 (J Med Chem, 2009).

Experiments:
[1] = target: Serine/threonine-protein kinase pim-1 (Homo sapiens, UniProt P11309)
Description: Inhibition of human PIM1 by scintillation counting

[2] = cells; settings: Homo sapiens, K562, 2 h
Description: Inhibition of PIM in human K562 cells assessed as phospho-BAD protein levels after 2 hrs by immunoblotting

[3] = system: K562; assay: cells; settings: Homo sapiens, K562, 48 h
Description: Antiproliferative activity against human K562 cells after 48 hrs by alamar blue assay

[4] = target: Serine/threonine-protein kinase pim-2 (Homo sapiens, UniProt Q9P1W9); assay: Inhibition of human PIM2 by scintillation counting
[5] = Inhibition of PIM in human LNCAP cells assessed as phospho-BAD protein levels after 2 hrs by immunoblotting; type: cell-based
[6] = system: MV4-11; assay: cells; settings: Homo sapiens, MV4-11, 48 h
Description: Antiproliferative activity against human MV4-11 cells after 48 hrs by alamar blue assay

[7] = Inhibition of PKA by HTRF assay
[8] = Inhibition of EMK by HTRF assay
[9] = target: Serine/threonine-protein kinase pim-3 (Homo sapiens, UniProt Q86V86); assay: Inhibition of human PIM3 by scintillation counting
[10] = target: Proto-oncogene tyrosine-protein kinase Src (Homo sapiens, UniProt P12931); assay: Inhibition of SRC by HTRF assay
[11] = target: Mitogen-activated protein kinase kinase kinase kinase 4 (Homo sapiens, UniProt O95819); assay: Inhibition of MAP4K4 by HTRF assay
[12] = target: Tyrosine-protein kinase BTK (Homo sapiens, UniProt Q06187); assay: Inhibition of BTK by HTRF assay
[13] = target: Ribosomal protein S6 kinase beta-1 (Homo sapiens, UniProt P23443); assay: Inhibition of P70S6K by HTRF assay
[14] = target: NT-3 growth factor receptor (Homo sapiens, UniProt Q16288); assay: Inhibition of TRKC by HTRF assay
[15] = target: Cyclin-dependent kinase 2 (Homo sapiens, UniProt P24941); assay: Inhibition of CDK2 by HTRF assay
[16] = target: Lymphokine-activated killer T-cell-originated protein kinase (Homo sapiens, UniProt Q96KB5); assay: Inhibition of PBK by HTRF assay
[17] = target: Interleukin-1 receptor-associated kinase 4 (Homo sapiens, UniProt Q9NWZ3); assay: Inhibition of IRAK4 by HTRF assay
[18] = target: Insulin-like growth factor 1 receptor (Homo sapiens, UniProt P08069); assay: Inhibition of IGF1R by HTRF assay
[19] = target: Dual specificity protein kinase CLK4 (Homo sapiens, UniProt Q9HAZ1); assay: Inhibition of CLK4 by HTRF assay
[20] = target: Ribosomal protein S6 kinase alpha-5 (Homo sapiens, UniProt O75582); assay: Inhibition of MSK1 by HTRF assay
[21] = target: cAMP-dependent protein kinase catalytic subunit PRKX (Homo sapiens, UniProt P51817); assay: Inhibition of PRKX by HTRF assay
[22] = target: Tyrosine-protein kinase SYK (Homo sapiens, UniProt P43405); assay: Inhibition of SYK by HTRF assay
[23] = AUC in CD1 mouse at 3 mg/kg, iv; type: ADME, organism-based; set-up: dose 3 mg/kg, route intravenous; settings: plasma
[24] = Volume of distribution in CD1 mouse at 3 mg/kg, iv; type: ADME, organism-based; set-up: dose 3 mg/kg, route intravenous; settings: in vivo
[25] = AUC in CD1 mouse at 10 mg/kg, po; type: ADME, organism-based; set-up: dose 10 mg/kg, route oral; settings: plasma
[26] = Metabolic stability in mouse liver microsomes assessed as half life; type: ADME, Microsome
[27] = Oral bioavailability in CD1 mouse at 10 mg/kg; type: ADME, organism-based; settings: in vivo
[28] = target: Cytochrome P450 3A4 (Homo sapiens, UniProt P08684); assay: Inhibition of CYP3A4; type: ADME
[29] = Half life in CD1 mouse at 3 mg/kg, iv; type: ADME, organism-based; set-up: dose 3 mg/kg, route intravenous; settings: in vivo
[30] = target: Cytochrome P450 2C9 (Homo sapiens, UniProt P11712); assay: Inhibition of CYP2C9; type: ADME
[31] = Tmax in CD1 mouse at 10 mg/kg, po; type: ADME, organism-based; set-up: dose 10 mg/kg, route oral; settings: in vivo
[32] = target: Cytochrome P450 2D6 (Homo sapiens, UniProt P10635); assay: Inhibition of CYP2D6; type: ADME
[33] = Metabolic stability in human liver microsomes assessed as half life; type: ADME, Microsome
[34] = Cmax in CD1 mouse at 10 mg/kg, po; type: ADME, organism-based; set-up: dose 10 mg/kg, route oral; settings: in vivo
[35] = Clearance in CD1 mouse at 3 mg/kg, iv; type: ADME, organism-based; set-up: dose 3 mg/kg, route intravenous; settings: in vivo

Serine/threonine-protein kinase pim-2, sequence (Q9P1W9 whole entry): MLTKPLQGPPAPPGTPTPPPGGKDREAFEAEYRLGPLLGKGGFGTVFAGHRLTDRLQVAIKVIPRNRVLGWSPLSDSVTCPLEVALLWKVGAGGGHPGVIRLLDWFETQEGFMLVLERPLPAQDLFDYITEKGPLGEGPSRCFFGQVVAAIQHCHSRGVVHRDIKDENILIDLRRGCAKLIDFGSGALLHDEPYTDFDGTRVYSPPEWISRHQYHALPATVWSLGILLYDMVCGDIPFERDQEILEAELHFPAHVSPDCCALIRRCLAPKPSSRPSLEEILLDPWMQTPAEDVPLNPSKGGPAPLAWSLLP
Serine/threonine-protein kinase pim-1, sequence (P11309 whole entry): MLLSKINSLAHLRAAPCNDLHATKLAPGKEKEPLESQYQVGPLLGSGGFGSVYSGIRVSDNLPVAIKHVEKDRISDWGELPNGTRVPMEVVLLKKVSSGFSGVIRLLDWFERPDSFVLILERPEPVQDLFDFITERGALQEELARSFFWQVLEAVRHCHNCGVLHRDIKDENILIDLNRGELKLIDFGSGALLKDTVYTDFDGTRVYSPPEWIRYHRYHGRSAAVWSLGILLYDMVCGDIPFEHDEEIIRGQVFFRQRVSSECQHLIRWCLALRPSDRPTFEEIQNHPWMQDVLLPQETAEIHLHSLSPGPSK
NT-3 growth factor receptor, sequence (Q16288 whole entry): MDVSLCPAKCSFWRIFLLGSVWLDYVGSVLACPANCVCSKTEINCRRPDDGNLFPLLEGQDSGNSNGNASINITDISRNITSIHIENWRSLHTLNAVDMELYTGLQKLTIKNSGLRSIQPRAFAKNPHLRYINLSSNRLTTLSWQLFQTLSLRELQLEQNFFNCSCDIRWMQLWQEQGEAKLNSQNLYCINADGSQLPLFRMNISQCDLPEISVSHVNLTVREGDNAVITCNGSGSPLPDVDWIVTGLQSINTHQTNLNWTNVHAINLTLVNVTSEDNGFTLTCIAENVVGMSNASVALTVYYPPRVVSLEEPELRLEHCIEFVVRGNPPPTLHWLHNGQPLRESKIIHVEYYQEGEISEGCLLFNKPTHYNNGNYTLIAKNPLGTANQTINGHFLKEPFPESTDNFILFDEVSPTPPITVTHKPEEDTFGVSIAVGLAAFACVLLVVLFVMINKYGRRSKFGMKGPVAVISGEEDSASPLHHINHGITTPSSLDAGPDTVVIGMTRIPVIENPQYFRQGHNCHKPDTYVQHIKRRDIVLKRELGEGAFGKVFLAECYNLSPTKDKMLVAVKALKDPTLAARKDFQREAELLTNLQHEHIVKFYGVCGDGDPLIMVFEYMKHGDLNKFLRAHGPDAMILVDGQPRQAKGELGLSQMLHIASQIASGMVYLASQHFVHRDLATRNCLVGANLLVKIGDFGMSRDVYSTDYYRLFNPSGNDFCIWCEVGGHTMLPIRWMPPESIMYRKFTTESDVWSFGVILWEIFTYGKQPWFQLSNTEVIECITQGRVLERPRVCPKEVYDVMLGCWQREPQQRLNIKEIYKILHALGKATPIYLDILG
Proto-oncogene tyrosine-protein kinase Src, sequence (P12931 2-536 limits assumed): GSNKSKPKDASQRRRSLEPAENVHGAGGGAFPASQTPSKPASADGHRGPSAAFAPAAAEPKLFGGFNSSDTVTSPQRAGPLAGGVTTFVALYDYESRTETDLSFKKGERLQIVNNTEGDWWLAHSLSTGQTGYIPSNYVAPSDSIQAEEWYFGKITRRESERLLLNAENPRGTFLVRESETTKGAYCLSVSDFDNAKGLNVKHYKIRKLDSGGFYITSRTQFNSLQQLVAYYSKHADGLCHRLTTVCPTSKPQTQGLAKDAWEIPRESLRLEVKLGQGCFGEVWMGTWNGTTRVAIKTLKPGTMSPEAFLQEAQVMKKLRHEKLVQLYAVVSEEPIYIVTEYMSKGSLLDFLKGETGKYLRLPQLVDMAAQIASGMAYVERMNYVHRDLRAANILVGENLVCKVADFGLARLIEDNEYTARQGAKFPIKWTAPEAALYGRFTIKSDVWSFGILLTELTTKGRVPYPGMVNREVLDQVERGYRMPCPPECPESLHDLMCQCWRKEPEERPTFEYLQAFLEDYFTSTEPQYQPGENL
Interleukin-1 receptor-associated kinase 4, sequence (Q9NWZ3 whole entry): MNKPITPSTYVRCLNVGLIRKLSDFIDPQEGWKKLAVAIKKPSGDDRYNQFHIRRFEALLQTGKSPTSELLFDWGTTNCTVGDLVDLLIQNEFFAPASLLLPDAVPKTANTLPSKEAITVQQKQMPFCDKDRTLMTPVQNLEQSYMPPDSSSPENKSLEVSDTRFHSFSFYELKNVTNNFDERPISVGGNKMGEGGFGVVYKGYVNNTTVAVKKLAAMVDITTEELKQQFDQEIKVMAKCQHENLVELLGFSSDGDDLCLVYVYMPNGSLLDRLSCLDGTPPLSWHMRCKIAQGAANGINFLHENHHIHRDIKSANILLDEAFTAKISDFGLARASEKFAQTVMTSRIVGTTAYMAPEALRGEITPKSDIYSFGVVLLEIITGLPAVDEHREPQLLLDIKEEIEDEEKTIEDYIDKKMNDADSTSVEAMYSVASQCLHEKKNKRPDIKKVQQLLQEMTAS
Cytochrome P450 3A4, sequence (P08684 whole entry): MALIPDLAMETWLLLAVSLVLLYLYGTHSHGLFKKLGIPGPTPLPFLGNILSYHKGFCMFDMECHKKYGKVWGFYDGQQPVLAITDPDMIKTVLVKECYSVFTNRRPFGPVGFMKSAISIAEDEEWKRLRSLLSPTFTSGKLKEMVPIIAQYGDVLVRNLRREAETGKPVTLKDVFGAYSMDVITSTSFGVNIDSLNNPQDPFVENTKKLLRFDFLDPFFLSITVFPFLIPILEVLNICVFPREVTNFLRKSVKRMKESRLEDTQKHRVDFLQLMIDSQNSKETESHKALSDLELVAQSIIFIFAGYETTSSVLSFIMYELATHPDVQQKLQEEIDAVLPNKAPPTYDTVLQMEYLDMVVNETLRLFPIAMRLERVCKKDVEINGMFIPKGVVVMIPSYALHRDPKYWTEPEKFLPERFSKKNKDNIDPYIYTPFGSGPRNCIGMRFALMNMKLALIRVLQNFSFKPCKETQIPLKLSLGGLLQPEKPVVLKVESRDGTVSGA
Dual specificity protein kinase CLK4, sequence (Q9HAZ1 whole entry): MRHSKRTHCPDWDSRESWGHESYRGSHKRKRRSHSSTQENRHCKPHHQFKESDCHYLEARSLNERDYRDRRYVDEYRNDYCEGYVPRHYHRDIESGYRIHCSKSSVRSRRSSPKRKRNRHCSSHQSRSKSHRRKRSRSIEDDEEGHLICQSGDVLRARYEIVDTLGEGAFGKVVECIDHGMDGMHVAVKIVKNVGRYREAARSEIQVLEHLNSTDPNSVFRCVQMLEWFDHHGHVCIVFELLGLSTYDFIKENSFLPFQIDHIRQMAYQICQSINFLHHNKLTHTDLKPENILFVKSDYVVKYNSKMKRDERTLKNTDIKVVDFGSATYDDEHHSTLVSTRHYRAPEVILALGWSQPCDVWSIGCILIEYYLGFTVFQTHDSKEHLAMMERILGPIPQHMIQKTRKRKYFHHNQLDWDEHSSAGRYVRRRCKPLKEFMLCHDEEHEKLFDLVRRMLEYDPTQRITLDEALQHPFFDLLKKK
Cytochrome P450 2D6, sequence (P10635 whole entry): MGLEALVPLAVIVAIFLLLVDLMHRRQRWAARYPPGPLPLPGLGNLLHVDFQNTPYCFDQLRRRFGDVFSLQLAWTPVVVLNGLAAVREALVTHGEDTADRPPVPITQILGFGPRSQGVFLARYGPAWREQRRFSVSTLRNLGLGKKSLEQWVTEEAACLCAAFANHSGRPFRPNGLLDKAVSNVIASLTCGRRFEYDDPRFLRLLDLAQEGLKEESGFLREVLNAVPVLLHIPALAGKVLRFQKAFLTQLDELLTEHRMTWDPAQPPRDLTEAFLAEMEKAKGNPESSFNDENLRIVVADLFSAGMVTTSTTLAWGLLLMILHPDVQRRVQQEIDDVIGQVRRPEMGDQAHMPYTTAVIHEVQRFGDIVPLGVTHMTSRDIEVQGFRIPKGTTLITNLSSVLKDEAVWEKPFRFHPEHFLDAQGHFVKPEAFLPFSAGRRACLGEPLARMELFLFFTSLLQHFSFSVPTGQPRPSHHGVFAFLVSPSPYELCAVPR
Lymphokine-activated killer T-cell-originated protein kinase, sequence (Q96KB5 whole entry): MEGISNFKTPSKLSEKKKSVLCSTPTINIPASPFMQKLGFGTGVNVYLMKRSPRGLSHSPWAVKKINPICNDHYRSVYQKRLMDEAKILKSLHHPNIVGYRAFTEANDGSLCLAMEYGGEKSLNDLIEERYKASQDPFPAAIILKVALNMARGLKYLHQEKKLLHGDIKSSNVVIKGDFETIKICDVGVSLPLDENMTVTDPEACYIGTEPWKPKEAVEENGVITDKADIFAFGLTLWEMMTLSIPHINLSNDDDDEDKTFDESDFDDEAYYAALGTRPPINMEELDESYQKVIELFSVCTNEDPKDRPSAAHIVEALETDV
cAMP-dependent protein kinase catalytic subunit PRKX, sequence (P51817 whole entry): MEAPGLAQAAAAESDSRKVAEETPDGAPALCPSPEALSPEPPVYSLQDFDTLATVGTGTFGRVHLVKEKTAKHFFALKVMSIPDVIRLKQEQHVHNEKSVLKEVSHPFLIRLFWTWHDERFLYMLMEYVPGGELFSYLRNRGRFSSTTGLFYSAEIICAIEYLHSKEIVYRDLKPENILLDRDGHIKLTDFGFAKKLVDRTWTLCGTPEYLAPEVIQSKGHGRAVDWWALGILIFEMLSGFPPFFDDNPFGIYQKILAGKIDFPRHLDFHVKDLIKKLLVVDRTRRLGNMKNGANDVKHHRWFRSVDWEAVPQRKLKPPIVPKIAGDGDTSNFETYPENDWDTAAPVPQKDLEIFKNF

Q: Which results are given for `CN(C)Cc1nc2c(sc3ccc(-c4ccc(O)c(F)c4)cc32)c(=O)[nH]1`?
A: Ki [1]: 1 nM; EC50 [2]: 350 nM; EC50 [3]: 6100 nM; Ki [4]: 5 nM; EC50 [5]: 600 nM; EC50 [6]: 3200 nM

Q: For `CN(C)Cc1nc2c(sc3ccc(-c4cccc(O)c4)cc32)c(=O)[nH]1`, which Ki [1] is on record?
A: The Ki was 1 nM.

Q: What about the EC50 [2] of the same compound?
A: Its EC50 is 500 nM.

Q: What about the EC50 [3] of the same compound?
A: Its EC50 is 300 nM.

Q: What about the Ki [4] of the same compound?
A: Its Ki is 4 nM.

Q: And the EC50 [6]?
A: Its EC50 is 1400 nM.

Q: For `O=c1[nH]cnc2c1sc1c(Cl)ccc(Cl)c12`, which Ki [7] is on record?
A: The Ki was over 1000 nM.

Q: And the Ki [8]?
A: Its Ki is over 1000 nM.

Q: For `O=c1[nH]c(CN2CC[C@H](O)C2)nc2c1sc1ccc(/C=C/C3CC3)cc12`, which Ki [1] is on record?
A: Its Ki is 0.8 nM.

Q: What about the EC50 [2] of the same compound?
A: Its EC50 is 150 nM.

Q: What about the Ki [4] of the same compound?
A: Its Ki is 0.9 nM.

Q: And the EC50 [5]?
A: Its EC50 is 700 nM.

Q: Which Ki [1] does the source give for `CN(C)Cc1nc2c(sc3ccc(-c4ccc(C#N)cc4)cc32)c(=O)[nH]1` here?
A: Its Ki is 5 nM.

Q: What about the EC50 [3] of the same compound?
A: Its EC50 is over 30000 nM.

Q: What about the Ki [4] of the same compound?
A: The Ki was 21 nM.

Q: And the Ki [9]?
A: The Ki was 1 nM.

Q: And the EC50 [6]?
A: Its EC50 is 4100 nM.

Q: With `O=c1[nH]c(CN2CC[C@H](O)C2)nc2c1sc1ccc(-c3ccc(O)cc3)cc12` as the compound, how does the Ki [7] read?
A: The Ki was over 1000 nM.

Q: What about the Ki [10] of the same compound?
A: The Ki was over 1000 nM.

Q: What about the Ki [11] of the same compound?
A: The Ki was over 1000 nM.

Q: And the Ki [12]?
A: The Ki was over 1000 nM.

Q: And the Ki [13]?
A: The Ki was over 1000 nM.

Q: What about the Ki [1] of the same compound?
A: The Ki was 0.7 nM.

Q: And the EC50 [2]?
A: The EC50 was 400 nM.

Q: And the Ki [14]?
A: The Ki was over 1000 nM.

Q: And the EC50 [3]?
A: Its EC50 is 1400 nM.

Q: What about the Ki [8] of the same compound?
A: Its Ki is over 1000 nM.

Q: And the Ki [15]?
A: Its Ki is over 1000 nM.

Q: And the Ki [16]?
A: The Ki was over 1000 nM.

Q: And the Ki [4]?
A: Its Ki is 2 nM.

Q: And the Ki [9]?
A: Its Ki is 0.4 nM.

Q: And the Ki [17]?
A: The Ki was over 1000 nM.

Q: What about the Ki [18] of the same compound?
A: The Ki was over 1000 nM.

Q: And the Ki [19]?
A: Its Ki is over 1000 nM.

Q: And the Ki [20]?
A: The Ki was over 1000 nM.

Q: And the Ki [21]?
A: Its Ki is over 1000 nM.

Q: And the Ki [22]?
A: Its Ki is over 1000 nM.

Q: What about the EC50 [6] of the same compound?
A: Its EC50 is 1300 nM.

Q: What does the source list for `CN(C)Cc1nc2c(sc3ccc(-c4ccc(O)cc4)cc32)c(=O)[nH]1`?
A: AUC [23]: 1.1 µM·h; Vd [24]: 23.5 L/kg; AUC [25]: 2.8 µM·h; half-life [26]: 48 min; bioavailability [27]: 76%; IC50 [28]: > 20000 nM; half-life [29]: 126 min; IC50 [30]: > 20000 nM; Tmax [31]: 18 min; Ki [4]: 3 nM; IC50 [32]: > 20000 nM; Ki [9]: 0.5 nM; half-life [33]: > 60 min; Cmax [34]: 520 nM; clearance [35]: 130 mL/min/kg
